Patent US6916923B2 (Hoffmann-La Roche Inc., priority 1999, dated 2005)

Tests used:
[1] = system: estrogen receptor negative epithelial breast carcinoma line (MDA-MB-435); assay: MDA-MB-435 cell-based antiproliferative (MTT) assay; details: Homo sapiens, MDA-MB-435, 120 h, 2000 cells per well, 5 days post addition of test compound, read-out: Antiproliferative Activity of MDA-MB435 (breast) Assay - IC50 Range
Description: (§1) The estrogen receptor negative epithelial breast carcinoma line (MDA-MB-435) was purchased from American Type Cell Culture Collection (ATCC; Rockville, Md.) and was grown in the medium recommended by ATCC. For analysis of the effect of the test compounds on growth of these cells, the cells were plated at 2000 cells per well in a 96-well tissue culture plate, and were incubated overnight at 37° C. with 5% CO2. The next day, the test compounds were dissolved in 100% dimethyl sulfoxide (DMSO) to yield a 10 mM stock solution. Each compound was diluted with sterile medium to 1 mM in a sufficient quantity to yield a final concentration of 120 μM. The compounds were then serially diluted in medium with 1.2% DMSO. One-fourth final volume of the diluted compounds was transferred to 96 well plates. Test compounds were assayed in duplicate. DMSO was added to a row of “control cells” such that the final concentration of DMSO in each well was 0.3%. Wells to which no cells were added served as the “blank.” Wells to which no inhibitor was added served as “no inhibitor control”. The plates were returned to the incubator, and 5 days post addition of test compound, were analyzed as described below.
(§2) 3-(4,5-Dimethylthiazole-2-yl)-2,5-diphenyl-2H-tetrazolium bromide (thiazolyl blue; MTT) was added to each well to yield a final concentration of 1 mg/mL. The plates were then incubated at 37° C. for 3 hours. The plates were centrifuged at 1000 rpm for 5 minutes prior to aspiration of the MTT-containing medium. The MTT-containing medium was then removed and 100 μL 100% ethanol was added to each well to dissolve the resulting formazan metabolite. To ensure complete dissolution, plates were shaken for 15 minutes at room temperature. Absorbencies were read in a microtiter plate reader (Molecular Dynamics) at a wavelength of 570 nm with a 650 nm reference. Percent inhibition was calculated by subtracting the absorbance of the blank (no cell) wells from all wells, then subtracting the division of the average absorbance of each test duplicate by the average of the controls from 1.00. Inhibitory concentrations (IC50) were determined from the linear regression of a plot of the logarithm of the concentration versus the percent inhibition.

[2] = target: T1, Recombinant active human Cyclin E/CDK2 complexes (Homo sapiens, UniProt P24941); assay: CDK2 FlashPlate Assay (inhibition of Rb phosphorylation); format: biochemical; details: Cyclin E/CDK2, Rb substrate, 33P-ATP, 25 minutes at room temperature; read-out: Inhibition of Cdk2 - IC50 Range
T1 construct: made in house; host or cells: insect cells
Description: To determine inhibition of CDK2 activity, purified recombinant retinoblastoma (Rb) protein was coated on 96 well FlashPlates (New England Nuclear, Boston, Mass.). Rb is a natural substrate for phosphorylation by CDK2 (Herwig and Strauss Eurr. J. Biochem., Vol. 246 (1997) pp. 581-601 and references therein). Recombinant active human Cyclin E/CDK2 complexes were partially purified from extracts of insect cells. The active Cyclin E/CDK2 was added to the Rb-coated FlashPlates along with ^33P-ATP and dilutions of test compounds. Plates were incubated for 25 minutes at room temperature with shaking, then washed and counted in the Topcount scintillation counter (Packard Instrument Co., Downers Grove, Ill.). Dilutions of test compounds were tested in duplicate in each assay. The percent inhibition of Rb phosphorylation, which is a measure of the inhibition of CDK2 activity, was determined according to the following formula: [formula] where “test compound” refers to the average counts per minute of the test duplicates, “nonspecific” refers to the average counts per minute when no Cyclin E/CDK2 was added, and “total” refers to the average counts per minute when no compound was added.

[3] = system: colon adenocarcinoma line SW480; assay: SW480 cell-based antiproliferative (MTT) assay; details: Homo sapiens, SW480, 144 h, 1000 cells per well, 6 days post addition of test compound, read-out: Antiproliferative Activity SW480 (colon) Assay - IC50 Range
Description: as §1, §2
The colon adenocarcinoma line SW480 and the colon carcinoma line HCT-116 also were obtained from the ATCC and were tested according to the same protocol provided above for MDA-MB435 cell based assay with the following modifications. Cell line SW480 was plated at 1000 cells per well and analyzed at 6 days post addition of the test compound. Cell line HCT-116 was plated at 1000 cells per well and analyzed at 4 days post addition of test compound.

Row | IC50 [1] | IC50 [2] | IC50 [3] | Compound
1 | 0.01 to 1 µM | 0.01 to 0.99 µM |  | C=Cc1[nH]nc2c1N=C(c1ccccc1Cl)c1cc([N+](=O)[O-])ccc1N2 [Compound C17, 3-ethenyl-5-(2-chlorophenyl)-7-nitro-pyrazolo[3,4][1,4]benzodiazepine]
2 |  | 1 to 9.99 µM |  | Fc1ccccc1C1=Nc2c[nH]nc2Nc2ccc(Cl)cc21 [Compound A7, 5-(2-fluorophenyl)-7-chloro-pyrazolo[3,4][1,4]benzodiazepine]
3 |  | 1 to 9.99 µM |  | CN(C)c1ccc(-c2[nH]nc3c2N=C(c2ccccc2Cl)c2cc([N+](=O)[O-])ccc2N3)cc1 [Compound D28]
4 | 10 to 30 µM | 0.01 to 0.99 µM |  | N#Cc1[nH]nc2c1N=C(c1ccccc1Cl)c1cc([N+](=O)[O-])ccc1N2 [Compound C18, 5-(2-chlorophenyl)-7-nitro-pyrazolo[3,4][1,4]benzodiazepine-3-carbonitrile]
5 |  | 1 to 9.99 µM |  | O=[N+]([O-])c1ccc2c(c1)C(c1ccccc1)=Nc1c(n[nH]c1-c1ncc[nH]1)N2 [Compound D34]
6 |  | 1 to 9.99 µM |  | O=C(O)c1ccc2c(c1)C(c1ccccc1F)=Nc1c[nH]nc1N2 [Compound D22]
7 | 10 to 30 µM | 0.01 to 0.99 µM |  | O=[N+]([O-])c1ccc2c(c1)C(c1ccccc1Cl)=Nc1c(n[nH]c1-c1cc[nH]n1)N2 [Compound B15]
8 |  | 0.01 to 0.99 µM | 0.01 to 1 µM | Cc1[nH]nc2c1N=C(c1ccccc1F)c1cc(C(N)=O)ccc1N2 [Compound C19, 3-methyl-5-(2-fluorophenyl)-pyrazolo[3,4][1,4]benzodiazepine-7-carboxamide]
9 | 1.1 to 9.99 µM | 0.01 to 0.99 µM |  | O=[N+]([O-])c1ccc2c(c1)C(c1ccccc1Cl)=Nc1c(n[nH]c1-c1c[nH]cn1)N2 [Compound B14, 3-(4-imidazolyl)-5-(2-chlorophenyl)-7-nitro-pyrazolo[3,4][1,4]benzodiazepine]
10 |  | 0.01 to 0.99 µM | 0.01 to 1 µM | Cc1[nH]nc2c1N=C(c1ccccc1F)c1cc(F)ccc1N2 [Compound B26, 3-methyl-5-(2-fluorophenyl)-7-fluoro-pyrazolo[3,4][1,4]benzodiazepine]
11 |  | 0.01 to 0.99 µM | 1.1 to 9.99 µM | Cc1[nH]nc2c1N=C(c1ccccc1F)c1cc(Cl)ccc1N2 [Compound B32, 3-methyl-5-(2-fluorophenyl)-7-chloro-pyrazolo[3,4][1,4]benzodiazepine]
12 |  | 1 to 9.99 µM |  | Cn1cccc1-c1[nH]nc2c1N=C(c1ccccc1Cl)c1cc([N+](=O)[O-])ccc1N2 [Compound D21]
13 |  | 1 to 9.99 µM |  | CC(C)Cc1[nH]nc2c1N=C(c1ccccc1Cl)c1cc([N+](=O)[O-])ccc1N2 [Compound B11, 3-(2-methylpropyl)-5-(2-chlorophenyl)-7-nitro-pyrazolo[3,4][1,4]benzodiazepine]
14 | 10 to 30 µM | 0.01 to 0.99 µM |  | NC(=O)c1[nH]nc2c1N=C(c1ccccc1Cl)c1cc([N+](=O)[O-])ccc1N2 [Compound C10, 5-(2-chlorophenyl)-7-nitro-pyrazolo[3,4][1,4]benzodiazepine-3-carboxamide]
15 |  | 0.01 to 0.99 µM |  | O=[N+]([O-])c1ccc2c(c1)C(c1ccccc1C(F)(F)F)=Nc1c[nH]nc1N2 [Compound A17, 5-(2-trifluoromethylphenyl)-7-nitro-pyrazolo[3,4][1,4]benzodiazepine]
16 |  | 1 to 9.99 µM |  | COC(=O)c1ccc2c(c1)C(c1ccccc1)=Nc1c[nH]nc1N2 [Compound A18, 5-phenyl-7-carbomethoxy-pyrazolo[3,4][1,4]benzodiazepine]
17 |  | 0.01 to 0.99 µM | 0.01 to 1 µM | Cc1[nH]nc2c1N=C(c1ccccc1)c1cc([N+](=O)[O-])ccc1N2 [Compound B27, 3-methyl-5-phenyl-7-nitro-pyrazolo[3,4][1,4]benzodiazepine]

Row | IC50 [1] | IC50 [2] | IC50 [3] | Compound
18 | 1.1 to 9.99 µM | 0.01 to 0.99 µM |  | O=[N+]([O-])c1ccc2c(c1)C(c1ccccc1Cl)=Nc1c(n[nH]c1C(F)(F)F)N2 [Compound B12, 3-trifluoromethyl-5-(2-chlorophenyl)-7-nitro-pyrazolo[3,4][1,4]benzodiazepine]
19 | 10 to 30 µM | 1 to 9.99 µM |  | CCOC(=O)c1[nH]nc2c1N=C(c1ccccc1Cl)c1cc([N+](=O)[O-])ccc1N2 [Compound B2, 3-carboethoxy-5-(2-chlorophenyl)-7-nitro-pyrazolo[3,4][1,4]benzodiazepine]
20 |  | 1 to 9.99 µM |  | Fc1ccccc1C1=Nc2c[nH]nc2Nc2ccc(I)cc21 [Compound A19, 5-(2-fluorophenyl)-7-iodo-pyrazolo[3,4][1,4]benzodiazepine]
21 |  | 0.01 to 0.99 µM | 0.01 to 1 µM | Cc1[nH]nc2c1N=C(c1ccccc1C(F)(F)F)c1cc([N+](=O)[O-])ccc1N2 [Compound D2]
22 |  | 0.01 to 0.99 µM |  | CCC(C)c1[nH]nc2c1N=C(c1ccccc1Cl)c1cc([N+](=O)[O-])ccc1N2 (stereo not drawn) [Compound B17, 3-(1-methylpropyl)-5-(2-chlorophenyl)-7-nitro-pyrazolo[3,4][1,4]benzodiazepine]
23 |  | 10 to 30 µM |  | Clc1ccc2c(c1)C(c1ccccc1Cl)=Nc1c[nH]nc1N2 [Compound A4, 5-(2-chlorophenyl)-7-chloro-pyrazolo[3,4][1,4]benzodiazepine]
24 |  | 1 to 9.99 µM |  | Cc1ccc(-c2[nH]nc3c2N=C(c2ccccc2Cl)c2cc([N+](=O)[O-])ccc2N3)cc1 [Compound D24]
25 |  | 1 to 9.99 µM |  | O=C(c1ccc2c(c1)C(c1ccccc1F)=Nc1c[nH]nc1N2)N(CCO)CCO [Compound C3, N,N-bis-(2-hydroxyethyl)-5-(2-fluorophenyl)-pyrazolo[3,4][1,4]benzodiazepine-7-carboxamide]
26 |  | 1 to 9.99 µM | 10 to 30 µM | Cc1[nH]nc2c1N=C(c1ccccc1)c1cc(I)ccc1N2 [Compound B33, 3-methyl-5-phenyl-7-iodo-pyrazolo[3,4][1,4]benzodiazepine]
27 |  | 1 to 9.99 µM | 10 to 30 µM | Fc1ccc2c(c1)C(c1ccccc1F)=Nc1c[nH]nc1N2 [Compound A11, 5-(2-fluorophenyl)-7-fluoro-pyrazolo[3,4][1,4]benzodiazepine]
28 |  | 1 to 9.99 µM |  | Clc1ccc2c(c1)C(c1ccccc1)=Nc1c[nH]nc1N2 [Compound A6, 5-phenyl-7-chloro-pyrazolo[3,4][1,4]benzodiazepine]
29 |  | 1 to 9.99 µM |  | Cc1ccc(-c2[nH]nc3c2N=C(c2ccccc2Cl)c2cc([N+](=O)[O-])ccc2N3)s1 [Compound D26]
30 |  | 10 to 30 µM |  | O=[N+]([O-])c1ccc2c(c1)C(c1ccccc1Cl)=Nc1c(n[nH]c1-c1ccccc1[N+](=O)[O-])N2 [Compound D39]
31 |  | 0.01 to 0.99 µM |  | CCOC(=O)c1ccc2c(c1)C(c1ccccc1F)=Nc1c[nH]nc1N2 [Compound A20, 5-(2-fluorophenyl)-7-carboethoxy-pyrazolo[3,4][1,4]benzodiazepine]
32 |  | 1 to 9.99 µM |  | CN(C)C(=O)c1[nH]nc2c1N=C(c1ccccc1Cl)c1cc([N+](=O)[O-])ccc1N2 [Compound C11, N,N-dimethyl-5-(2-chlorophenyl)-7-nitro-pyrazolo[3,4][1,4]benzodiazepine-3-carboxamide]
33 |  | 0.01 to 0.99 µM |  | O=[N+]([O-])c1ccc2c(c1)C(c1ccccc1Cl)=Nc1c(n[nH]c1-c1nccs1)N2 [Compound B13, 3-(1-thiazolyl)-5-(2-chlorophenyl)-7-nitro-pyrazolo[3,4][1,4]benzodiazepine]
34 |  | 0.01 to 0.99 µM |  | Cc1[nH]nc2c1N=C(c1ccccc1)c1ccccc1N2 [Compound B28, 3-methyl-5-phenyl-pyrazolo[3,4][1,4]benzodiazepine]
